Reference: US20060063828A1 (priority 2004, published 2006)

Experiments:
[1] = test system: VCAM-1; test: In Vitro VCAM-1 Assay (ELISA of VCAM-1 on TNF-α stimulated endothelial cells); assay type: cell-based; settings: Endothelial cell; primary human aortic (HAEC) or pulmonary (HPAEC) endothelial cells, TNF-α (1 ng/ml), approximately 16 hours
Procedure: Cell Culture and compound dosing: Cultured primary human aortic (HAEC) or pulmonary (HPAEC) endothelial cells were obtained from Clonetics, Inc., and were used below passage 9. Cells were seeded in 96 well plates such that they would reach 90-95% confluency by the following day. On the following day the cells were stimulated with TNF-α (1 ng/ml) in the presence or absence of compounds dissolved in DMSO such that the final concentration of DMSO is 0.25% or less. To establish a dose curve for each compound, four concentrations in 2- to 5-fold increments were used. Cells were exposed to TNF-α and compounds for approximately 16 hours. The next day the cells were examined under microscope to score for visual signs of toxicity or cell stress.
Following 16 hr exposure to TNF-α and compound the media was discarded and the cells were washed once with Hanks Balanced Salt Solution (HBSS)/Phosphate buffered saline (PBS) (1:1). Primary antibodies against VCAM-1 (0.25 μg/ml in HBSS/PBS+5% FBS) were added and incubated for 30-60 minutes at 37° C. Cells were washed with HBSS/PBS three times, and secondary antibody Horse Radish Peroxidase (HRP)-conjugated goat anti-mouse IgG (1:500 in HBSS/PBS+5% FBS) were added and incubated for 30 minutes at 37° C. Cells were washed with HBSS/PBS four time and TMB substrate were added and incubated at room temperature in the dark until there was adequate development of blue color. The length of time of incubation was typically 5-15 minutes. 2N sulfuric acid was added to stop the color development and the data was collected by reading the absorbance on a BioRad ELISA plate reader at OD 450 nm. The results are expressed as IC50 values (the concentration (micromolar) of compound required to inhibit 50% of the maximal response of the control sample stimulated by TNF-α only).

[2] = test system: Balb/C mice; test: Asthma Protocol (ovalbumin sensitized and challenged mice, bronchoaveolar lavage cell counts); assay type: in vivo; settings: ovalbumin sensitized and aerosol challenged, lavage fluid cell counts
Procedure: Balb/C mice (6-8 weeks old) are sensitized to ovalbumin (ova) (8 ug ova absorbed in 3.3 mg Alum inject) on days 0 and 5. On day 12, the mice were aerosol challenged with 0.5% ovalbumin dissolved in sterile saline for 1 h in the AM, and then again in the PM (at least 4 h apart). On day 14, the mice were anesthetized with ketamine/xylazine/acepromazine cocktail, exsanguinated, and then euthanized. Following blood collection, bronchoaveolar lavage was performed on each animal. Total cell counts were conducted on the lavage fluid. The lavage fluid was processed and slides were made by spinning the samples with a cytospin centrifuge. Slides were airdried and stained using Diff-Quik® stain. Cell differentials of the lavage fluid were completed at the conclusion of the study. Statistical analysis involved ANOVA and Tukey-Kramer post hoc tests. Compounds were administered by subcutaneous injection twice daily from day 11-13. The formulations used contained various mixtures of the following excipients (pharmasolve, cremophor RH 40, tween 80, PEG 300). See Biological Table 3

[3] = test system: Male Lewis rats; test: Rheumatoid Arthritis Protocol (adjuvant-induced paw swelling); assay type: in vivo; settings: M. butyricum adjuvant
Procedure: Male Lewis rats (150-175 g) from Charles River Laboratories were anesthetized on day 0 with 3-5% isoflurane anesthesia while the tail base was shaved and adjuvant mixture was injected. 50 μL of adjuvant (10 mg/ml M. butyricum in mineral oil) was injected subcutaneously into two sites at the tail base. Paw swelling was monitored using a plethysmometer (UGO Basile), after shaving each leg to the level of the Achilles tendon to mark the level of immersion. A baseline paw measurement for both hindpaws was taken between […] a second measurement was taken on day 8. Onset of paw swelling occurred rapidly between days 8-11 and daily measurements were performed every weekday between day 8 and day 14. Compounds of the invention and vehicles were dosed therapeutically (d8-13) after swelling was confirmed. Solutions were injected subcutaneously or given orally by gavage 1-2 times per day. From day 0, rats were weighed on days 0, 8, 11, and 14 and overall health was monitored. Plasma drug levels, if desired, were measured in tail-vein derived blood samples taken on day 13. On day 14, blood samples were obtained by cardiac puncture, rats were euthanized with CO2, selected organs were removed and both hindpaws were amputated and placed in 10% buffered formalin for histopathological analysis. See Biological Table 2.

| Structure (SMILES) | IC50 [1] [nM] | % Inhibition 6 mg/kg sq, bid, d11-13 [2] [%] | % Inhibition 20 mg/kg sq, bid, d8-13 [3] [%] | melting point |
| --- | --- | --- | --- | --- |
| C=C(C(=O)c1ccc(C(=O)O)cc1)c1cc(-c2cccs2)ccc1OC [Example 8, 4-[2-(2-Methoxy-5-thien-2-yl-phenyl)-acryloyl]-benzoic acid] | < 1000 | 50 | 44 |  |
| C=C(C(=O)c1c(OC)ccc(-c2cccs2)c1OC)c1ccc(C(=O)O)cc1 [Example 30, 4-[1-(2,6-Dimethoxy-3-thien-2-yl-benzoyl)-vinyl]-benzoic acid] | < 1000 | 45 | 77 | 193 to 195 °C |
| C=C(C(=O)c1c(OC)cccc1OC)c1ccc(OC(C)(C)C(=O)O)c(-c2cccs2)c1 [Example 37, 2-{4-[1-(2,6-Dimethoxy-benzoyl)-vinyl]-2-thien-2-yl-phenoxy}-2-methyl-propionic acid] | < 6000 | 27 |  | 56.5 °C (dec.) |
